# In paper PMC10382259, “Efficacy and Safety of Elamipretide in Individuals With Primary Mitochondrial Myopathy” (Neurology, 2023):
# “Also recorded” adds a separate entry of the source.
# Legend:
# [1] = tested on: participants with primary mitochondrial myopathy (PMM); test: 6-minute walk test (6MWT), MMPOWER-3 phase 3 trial; assay type: in vivo, human
# Protocol: (§1) MMPOWER-3 was a 24-week , randomized, double-blind, parallel-group, placebo-controlled clinical trial for adults with PMM conducted at 27 clinical research centers in 7 countries (Canada, Denmark, England, Germany, Hungary, Italy, and the United States).
# (§2) After screening (7–28 days), eligible participants were randomized in a 1:1 ratio to receive either 24-weeks of once-daily SC dosing of 40 mg of elamipretide or placebo. Study drug or placebo was self-administered subcutaneously by trained participants or their caregivers, at rotating sites around 4 quadrants of the abdomen or the thighs. Treatment began at the baseline visit with assessments at weeks 4, 12, and 24.
# (§3) Coprimary endpoints evaluated the effect of elamipretide for 24 weeks including the distance walked (in meters) on the 6MWT and the total fatigue score on the Primary Mitochondrial Myopathy Symptom Assessment (PMMSA), previously described in detail.[31] The full PMMSA assesses the severity of 10 of the most common symptoms of PMM using the following 4-point scale (not at all[1] to severe; described later). PMMSA total fatigue score (TFS) focuses on myopathic symptoms most commonly associated with PMM (severity of tiredness and muscle weakness at rest and during activities, as described by participants).
# (§4) Efficacy was assessed in the intention-to-treat (ITT) population, defined as all participants who received at least 1 dose of investigational medication, and the per-protocol (PP) population, which included all ITT participants without defined protocol violations/deviations identified per blinded data review before database lock. These protocol violations/deviations included not meeting inclusion/exclusion criteria or having a selected major protocol deviation deemed to potentially affect efficacy findings; not completing the study; not receiving investigational treatment within 2 days before the week 24 visit; having <80% compliance to investigational product; and not completing the study. Safety was assessed in the safety population, defined as all participants who received at least 1 dose of investigational medication.
# (§5) Primary and secondary efficacy outcomes were assessed as the change from baseline to each on-treatment time point with the primary time point being end of treatment (week 24). Analyses of continuous endpoints were conducted using a mixed-model repeated measures approach, with fixed effects for treatment, visit, the treatment-by-visit interaction, and participant as a random effect. The baseline value and a baseline-by-visit interaction for the endpoint were included as covariates. A family-wise alpha level of 0.05 was maintained for the primary endpoints, using Hochberg procedure at the primary time point of 24 weeks. […] If not, the endpoint with the smaller p value of the 2 was considered statistically significant if the p value was ≤0.025 (2-sided ).
# (§6) Given the extensive genetic heterogeneity of the study population, an exploratory analysis of genetic subgroups by genomic alteration (mtDNA and nDNA) was performed using the same methods as described for the primary efficacy endpoints earlier (ITT population using similar mixed-model repeated measure [MMRM] models).
# Because of a potential data entry error, which was later identified in post hoc data analysis, 3 participants were misclassified in the clinical study report as having a pathogenic mtDNA variant. […] Accordingly, these participants were moved from the mtDNA group into the nDNA cohort for the included genetic alteration analyses. 6MWT for 1 participant at week 24 was deemed unusable because the participant inadvertently received walking assistance and was therefore not included in the 6MWT analyses. Study protocol and statistical analysis plan were published on ClinicalTrials.gov updated on January 24th 2022 (NCT03323749).[32]
# [2] = tested on: participants with primary mitochondrial myopathy (PMM); test: Safety and tolerability (adverse events), MMPOWER-3; assay type: in vivo, human
# Protocol: Safety and tolerability of elamipretide at a dose of 40 mg/d SC were assessed through recording of adverse events (AEs), ascertained through self-report, vital signs, physical examination, ECGs, and clinical laboratory evaluations. Adverse events were assessed for severity and relationship to study medication throughout the 24-week study. Safety measures were assessed during screening, baseline and weeks 4, 12, and 24.
# as §4
# [3] = tested on: participants with primary mitochondrial myopathy (PMM); test: MMPOWER-3 overall outcome on primary and secondary efficacy endpoints; assay type: in vivo, human; details: 40 mg/d SC, 24 weeks, vs placebo
# Text: as §3, with “participants). […]” for “participants).”
# Other secondary endpoints included the patient global impression (PGI) and clinician global impression (CGI) of PMM symptoms. PGI and CGI assess patient and clinician overall assessment of the severity of patients' symptoms related to PMM on a 5-point scaled question scored 0 to 4 (0 = none, 1 = mild, 2 = moderate, 3 = severe, and 4 = very Severe) and changes to their symptoms on a 7-point scale scored −3 to 3 (−3 = very much worse, −2 = moderately worse, −1 = a little worse, 0 = no change, 1 = a little better, 2 = moderately better, and 3 = very much better).
# Primary and secondary efficacy outcomes were assessed as the change from baseline to each on-treatment time point with the primary time point being end of treatment (week 24). […]
# [4] = Population pharmacokinetic and exposure-response analysis (NONMEM), MMPOWER-3; assay type: in vivo, human
# Protocol: The PK population included 106 participants randomized and treated with elamipretide, with at least 1 PK sample taken during their participation. PK modeling for elamipretide and its metabolites, M1 and M2, were performed using NONMEM computer software. Covariates, such as age, genotype, weight, height, lean body mass, body mass index, liver function tests, serum creatinine, and renal function (as described by estimated glomerular filtration rate [eGFR]) were analyzed. The exposure-response analysis examined response based on the 6MWT as a function of steady-state exposure to elamipretide and its metabolites.
# [5] = cited from earlier work
# Text: Elamipretide is an investigational mitochondrial-targeting agent in development for treating patients with a variety of mitochondrial diseases.[10][-][13] Elamipretide is a water-soluble, aromatic, cationic, mitochondria-targeting tetrapeptide that readily penetrates and transiently localizes to the inner mitochondrial membrane where it associates with cardiolipin to improve membrane stability and restore supercomplex formation, thereby enhancing adenosine triphosphate synthesis in several organs including the heart, kidney, neurons, and skeletal muscle, and reduce reactive oxygen species (ROS ...
# [6] = tested on: participants with primary mitochondrial myopathy (PMM); test: Primary Mitochondrial Myopathy Symptom Assessment (PMMSA) total fatigue score, MMPOWER-3; assay type: in vivo, human
# Protocol: as §1, §2, §3
# The PMMSA was performed during screening, baseline, and daily throughout the 24-week study period. Other efficacy endpoints were performed at screening, baseline, and at weeks 4, 12, and 24 of randomized treatment.
# as §4, §5, §6
# [7] = 40 mg/d SC, 24 weeks, listed as Elamipretide
# [8] = AEs reported by ≥ 5% of participants in either group, n = 109, 40 mg/d SC, 24 weeks
# [9] = safety population n = 109, 40 mg/d SC, 24 weeks
substance,measurement,setting,value
elamipretide,Difference between elamipretide and placebo in LS mean change from baseline in 6MWT distance at week 24,"[1]; ITT population, 40 mg/d SC, 24 weeks, 95% CI −18.7 to 12.3, p = 0.69",−3.2 meters
same,Least squares mean (SE) of change from baseline in distance walked on 6MWT at week 24,"[1]; ITT population, elamipretide 40 mg/d SC once daily, 24 weeks, MMRM, SEM",14.1 (±5.7) meters
same,"Difference between elamipretide and placebo in change from baseline in 6MWT distance at week 24, per-protocol analysis","[1]; PP population, 40 mg/d SC, 24 weeks, 95% CI −16.9 to 12.5, p = 0.77",−2.2 meters
same,"LS mean (SE) of change from baseline in 6MWT distance at week 24, mtDNA alteration subgroup","[1]; participants with mtDNA alteration (ITT), elamipretide n = 74, 40 mg/d SC, 24 weeks, SEM",14.0 (±6.1) meters
same,"Between-group difference in change from baseline in 6MWT distance at week 24, mtDNA alteration subgroup","[1]; participants with mtDNA alteration, favoring placebo, 95% CI −28.1 to 6.1, p = 0.21",−11.0 meters
same,"LS mean (SE) change from baseline in 6MWT distance at week 24, nDNA alteration subgroup","[1]; participants with nDNA alteration (post hoc analysis), elamipretide n = 29, 40 mg/d SC, 24 weeks, SEM",25.5 (±8.0) meters
same,"Between-group difference in change from baseline in 6MWT distance at week 24, nDNA alteration subgroup","[1]; participants with nDNA alteration (post hoc), favoring elamipretide, 95% CI 3.1–47.3, p = 0.03",25.2 meters
same,AE with an outcome of death or hospitalization,"[2]; 40 mg/d SC, 24 weeks",No participants
same,Severity (intensity) of most adverse events,"[2]; 40 mg/d SC, 24 weeks",mild or moderate
same,Tolerability of subcutaneous elamipretide,"[2]; 40 mg/d SC, 24 weeks",generally well tolerated
same,Severity (intensity) of most adverse events,[2]; [7],mild to moderate
same,Tolerability of subcutaneous elamipretide,[2]; [7],well-tolerated
same,Diarrhea,[2]; [8],3 (2.8) n (%)
same,Dizziness,[2]; [8],6 (5.5) n (%)
same,Eosinophil count increased,[2]; [8],7 (6.4) n (%)
same,Fall,[2]; [8],6 (5.5) n (%)
same,Headache,[2]; [8],8 (7.3) n (%)
same,Injection site bruising,[2]; [8],9 (8.3) n (%)
same,Injection site erythema,[2]; [8],94 (86.2) n (%)
same,Injection site hematoma,[2]; [8],0 n (%)
same,Injection site hemorrhage,[2]; [8],7 (6.4) n (%)
same,Injection site induration,[2]; [8],31 (28.4) n (%)
same,Injection site mass,[2]; [8],9 (8.3) n (%)
same,Injection site nodule,[2]; [8],11 (10.1) n (%)
same,Injection site pain,[2]; [8],43 (39.4) n (%)
same,Injection site pruritus,[2]; [8],82 (75.2) n (%)
same,Injection site swelling,[2]; [8],42 (38.5) n (%)
same,Injection site urticaria,[2]; [8],14 (12.8) n (%)
same,Nasopharyngitis,[2]; [8],8 (7.3) n (%)
same,Nausea,[2]; [8],5 (4.6) n (%)
same,Upper respiratory tract infection,[2]; [8],7 (6.4) n (%)
same,AEs reported as treatment-related AEs,"[2]; elamipretide group, 40 mg/d SC, 24 weeks",97.2%
same,Percentage of participants with serious adverse events (SAEs),"[2]; n = 5/109, not deemed to be treatment related",4.6%
same,Incidence of AEs leading to discontinuation,[2]; n = 8/109,7.3%
same,Percentage of participants reporting AEs during the treatment period,"[2]; n = 107/109, 40 mg/d SC, 24 weeks",98.2%
same,Any AE,[2]; [9],107 (98.2) n (%)
same,Any AE leading to treatment discontinuation,[2]; [9],8 (7.3) n (%)
same,Any AE leading to treatment interruption,[2]; [9],13 (11.9) n (%)
same,Any SAE,[2]; [9],5 (4.6) n (%)
same,Any treatment-related AE,[2]; [9],106 (97.2) n (%)
same,Any treatment-related SAE,[2]; [9],0 n (%)
same,Death,[2]; [9],0 n (%)
same,"Overall outcome on efficacy endpoints (6MWT, PMMSA TFS, secondary endpoints) versus placebo",[3],did not improve outcomes in the 6MWT and PMMSA TFS; also recorded: did not meet either primary or secondary endpoints; also recorded: did not demonstrate statistically significant changes on the primary endpoints
same,Covariate influence on systemic or absorption PK parameters (population PK model),"[4]; PK population 106 participants, NONMEM, systemic parameters scaled allometrically",No covariates influenced the systemic or absorption parameters
same,Exposure-response: 6MWT change and fractional change at week 24 vs day 1 as a function of elamipretide steady state area under the curve,"[4]; participants with an nDNA alteration, p = 0.0262 and p = 0.0345, respectively",increase; also recorded: statistically significant correlation
same,Solubility in water (description),[5],water-soluble
same,Difference between elamipretide and placebo in LS mean change from baseline to week 24 on PMMSA total fatigue score,"[6]; ITT population, 40 mg/d SC, 24 weeks, 95% CI −0.69 to 0.54, p = 0.81",−0.07
same,LS mean (SE) of change from baseline to week 24 on the PMMSA total fatigue score,"[6]; ITT population, 40 mg/d SC, 24 weeks, MMRM, SEM",−1.13 (±0.22)
same,"Difference between elamipretide and placebo in change from baseline to week 24 on PMMSA total fatigue score, per-protocol analysis","[6]; PP population, 40 mg/d SC, 24 weeks, 95% CI −0.54 to 0.72, p = 0.78",0.09
same,"LS mean (SE) of change from baseline at week 24 on PMMSA TFS, mtDNA alteration subgroup","[6]; participants with mtDNA alteration, 40 mg/d SC, 24 weeks, SEM",−1.3 (±0.2424)
same,"Between-group difference in change from baseline at week 24 on PMMSA TFS, mtDNA alteration subgroup","[6]; participants with mtDNA alteration, 95% CI −0.9 to 0.5, p = 0.55",−0.21
same,"LS mean (SE) of change from baseline at week 24 on PMMSA TFS, nDNA alteration subgroup","[6]; participants with nDNA alteration (post hoc analysis), 40 mg/d SC, 24 weeks, SEM",−0.45 (±0.25)
same,"Between-group difference in change from baseline at week 24 on PMMSA TFS, nDNA alteration subgroup","[6]; participants with nDNA alteration (post hoc), p = 0.93",0.03
